Where two headings read alike, the source gives them in different places.
Test system: human virus hRSV adapted to the growth in mouse lungs
Experiment: animal or person
Type: in vivo
Settings: for Body weight of the mice after infection with hRSV, Day 5 / Body weight of the mice after infection with hRSV, Day 7: 30 mg/kg orally once daily for 5 days from 24 h after infection, M ± SD, n = 6; for hRSV viral titer in mouse lungs, Day 5, lg / hRSV viral titer in mouse lungs, Day 7, lg: 30 mg/kg orally once daily for 5 days, 10% lung suspension titrated in Hep-2 cell culture, TCID; for log reduction at 30 mg/kg: human respiratory syncytial virus, po, 120 h
[1] = read-out: Suppression of the reproduction of hRSV virus in mouse lungs, Day 5, Δlg
[2] = read-out: Suppression of the reproduction of hRSV virus in mouse lungs, Day 7, Δlg

| SMILES | Body weight of the mice after infection with hRSV, Day 5 | Body weight of the mice after infection with hRSV, Day 7 | hRSV viral titer in mouse lungs, Day 5, lg | hRSV viral titer in mouse lungs, Day 7, lg | log reduction at 30 mg/kg [1] | log reduction at 30 mg/kg [2] |
| --- | --- | --- | --- | --- | --- | --- |
| O=C1CCCC(=O)N1CCC1CCNCC1 [Compound 123] | 15.87 ± 0.20 | 17.55 ± 0.53 | 2.50 ± 0.43 lg | 1.33 ± 0.19 lg | 2.1 ± 0.43 | 2.62 ± 0.5 |
| O=C1CCCC(=O)N1CCc1ncc[nH]1 [Compound 8] | 15.18 ± 0.18 | 17.13 ± 0.27 | – | – | – | – |
| O=C1CCCC(=O)N1CCc1nc2ccccc2s1 [Compound 7, 1-[2-(1H-benzothiazol-2-yl)ethyl]piperidine-2-dione] | 17.17 ± 0.26 | 18.53 ± 0.55 | – | – | – | – |
| O=C1CCCC(=O)N1CCC1CCCCN1 (stereo not shown) [Compound 122] | 16.93 ± 0.32 | 16.37 ± 0.21 | 3.04 ± 0.44 lg | 1.75 ± 0.41 lg | 1.56 ± 0.44 | 1.88 ± 0.47 |
| O=C1CCCC(=O)N1CCc1nccs1 [Compound 6] | 16.47 ± 0.26 | 17.02 ± 0.29 | – | – | – | – |
| O=C1CCCC(=O)N1CCc1cccnc1 [Compound 10, 1-[2-(1H-pyridyl-3-yl)ethyl]piperidine-2,6-dione] | 16.18 ± 0.29 | 16.53 ± 0.20 | – | – | – | – |
| CC1(C)CC(=O)N(CCc2cnc[nH]2)C(=O)C1 [Compound 3] | 16.65 ± 0.28 | 17.32 ± 0.25 | 3.04 ± 0.42 lg | 1.46 ± 0.17 lg | 1.56 ± 0.42 | 2.18 ± 0.28 |
| Cn1cnc(CCN2C(=O)CCCC2=O)c1 [Compound 5] | 16.02 ± 0.16 | 17.78 ± 0.26 | 2.17 ± 0.37 lg | 0.88 ± 0.31 lg | 2.43 ± 0.37 | 2.93 ± 0.31 |
| O=C1CCCC(=O)N1CCC1CCCN1 (stereo not shown) [Compound 4] | 16.77 ± 0.20 | 17.08 ± 0.32 | 2.58 ± 0.51 lg | 1.38 ± 0.24 lg | 2.02 ± 0.51 | 2.58 ± 0.53 |
| O=C1CCCC(=O)N1CCc1nc2ccccc2[nH]1 [Compound 124] | 16.43 ± 0.26 | 16.37 ± 0.43 | 2.46 ± 0.22 lg | 0.83 ± 0.37 lg | 2.14 ± 0.22 | 2.97 ± 0.37 |
| O=C1CCCC(=O)N1CCC1CCCNC1 (stereo not shown) [Compound 121] | 16.35 ± 0.20 | 17.38 ± 0.29 | 3.08 ± 0.47 lg | 1.50 ± 0.14 lg | 1.52 ± 0.47 | 2.09 ± 0.22 |
| O=C1CCCC(=O)N1CCc1cnc[nH]1 [Compound 1, 1-(2-(1H-imidazol-4-yl)ethyl)piperidine-2,6-dione] | 16.43 ± 0.14 | 17.98 ± 0.26 | 2.88 ± 0.59 lg | 1.46 ± 0.17 lg | 1.73 ± 0.59 | 2.34 ± 0.17 |
| O=C1CCCC(=O)N1CCN1CCOCC1 [Compound 117] | 16.07 ± 0.12 | 16.48 ± 0.28 | 3.00 ± 0.41 lg | 1.46 ± 0.24 lg | 1.6 ± 0.41 | 2.22 ± 0.34 |
| O=C1CCCC(=O)N1CCC1CCNC1 (stereo not shown) [Compound 120] | 16.12 ± 0.27 | 17.22 ± 0.20 | 3.04 ± 0.47 lg | 1.50 ± 0.25 lg | 1.56 ± 0.47 | 2.05 ± 0.25 |
| O=C1CCCC(=O)N1CCc1ccncc1 [Compound 9] | 15.75 ± 0.33 | 16.18 ± 0.29 | – | – | – | – |

Reference: patent publication US10155743B2, “Glutarimide derivatives, use thereof, pharmaceutical composition based thereon and methods for producing glutarimide derivatives” (OBSCHESTVO S OGRANICHENNOI OTVETSTVENNOSTIYU …, priority 2013, dated 2018)
